# Reference: PubChem BioAssay AID248 (DTP/NCI, 2004)
# Toxic doses and inconclusive results are not listed.
# System: L1210 leukemia ip in BDF1 mice, survival T/C
# Experiment: NCI In Vivo Anticancer Drug Screen. Data for tumor model L1210 Leukemia (intraperitoneal) in B6D2F1 (BDF1) mice
# Details: endpoint: mean survival time, higher = longer survival
# Method in brief: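 Tumor cells were implanted, animals were treated, and survival was followed. The result divides the treated measurement by the vehicle-control measurement.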
# [1] = dose: 100.0 mg/kg/injection, schedule: Q04DX003 (ip), vehicle: Klucel (hydroxypropylcellulose) (HPC)
# [2] = dose: 200.0 mg/kg/injection, schedule: Q04DX003 (ip), vehicle: Klucel (hydroxypropylcellulose) (HPC)
# [3] = dose: 400.0 mg/kg/injection, schedule: Q04DX003 (ip), vehicle: Klucel (hydroxypropylcellulose) (HPC)
# [4] = dose: 100.0 mg/kg/injection, schedule: Q01DX009 (ip), vehicle: Klucel (hydroxypropylcellulose) (HPC)
# [5] = dose: 200.0 mg/kg/injection, schedule: Q01DX009 (ip), vehicle: Klucel (hydroxypropylcellulose) (HPC)
# [6] = dose: 100.0 mg/kg/injection, schedule: Q04DX003 (ip), vehicle: saline with Tween-80
# [7] = dose: 200.0 mg/kg/injection, schedule: Q04DX003 (ip), vehicle: saline with Tween-80
# [8] = dose: 400.0 mg/kg/injection, schedule: Q04DX003 (ip), vehicle: saline with Tween-80
smiles,measurement,setting,value
COc1ccc2c(c1)c(CC(=O)O)c(Br)n2Cc1ccccc1,T/C,"dose: 100.0 mg/kg/injection, schedule: Q01DX001 (ip), vehicle: Klucel (hydroxypropylcellulose) (HPC)",112 % of control
same,T/C,[1],98 % of control
same,T/C,"dose: 200.0 mg/kg/injection, schedule: Q01DX001 (ip), vehicle: Klucel (hydroxypropylcellulose) (HPC)",112 % of control
same,T/C,[2],100 % of control
same,T/C,"dose: 400.0 mg/kg/injection, schedule: Q01DX001 (ip), vehicle: Klucel (hydroxypropylcellulose) (HPC)",101 % of control
same,T/C,[3],102 % of control
CN=C(NC)c1ccc(NC(=O)CCc2ccc(C(=O)Nc3ccc(C(=NC)NC)cc3)cc2)cc1,T/C,"dose: 0.75 mg/kg/injection, schedule: Q01DX Z (ip), vehicle: carboxymethylcellulose (CMC)",94 % of control
same,T/C,"dose: 1.5 mg/kg/injection, schedule: Q01DX Z (ip), vehicle: carboxymethylcellulose (CMC)",90 % of control
same,T/C,"dose: 3.0 mg/kg/injection, schedule: Q01DX Z (ip), vehicle: carboxymethylcellulose (CMC)",93 % of control
same,T/C,"dose: 6.0 mg/kg/injection, schedule: Q01DX Z (ip), vehicle: carboxymethylcellulose (CMC)",113 % of control
same,T/C,"dose: 10.5 mg/kg/injection, schedule: Q01DX Z (ip), vehicle: carboxymethylcellulose (CMC)",168 % of control
same,T/C,"dose: 50.0 mg/kg/injection, schedule: Q01DX Z (oral), vehicle: carboxymethylcellulose (CMC)",101 % of control
same,T/C,"dose: 100.0 mg/kg/injection, schedule: Q01DX Z (oral), vehicle: carboxymethylcellulose (CMC)",105 % of control
same,T/C,"dose: 200.0 mg/kg/injection, schedule: Q01DX Z (oral), vehicle: carboxymethylcellulose (CMC)",103 % of control
same,T/C,"dose: 400.0 mg/kg/injection, schedule: Q01DX Z (oral), vehicle: carboxymethylcellulose (CMC)",94 % of control
COc1cc2c(cc1OC)C1C(=CCC3c4cc(OC)c(OC)cc4CC[N+]31C)C=C2 (stereo not given),T/C,"dose: 6.25 mg/kg/injection, schedule: Q01DX009 (ip), vehicle: saline with Tween-80",95 % of control
same,T/C,"dose: 12.5 mg/kg/injection, schedule: Q01DX009 (ip), vehicle: saline with Tween-80",99 % of control
same,T/C,"dose: 25.0 mg/kg/injection, schedule: Q01DX009 (ip), vehicle: saline with Tween-80",102 % of control
CCc1ccccc1NC(=O)Nc1ccccc1,T/C,[4],94 % of control
same,T/C,[1],103 % of control
same,T/C,[5],98 % of control
same,T/C,[2],94 % of control
same,T/C,"dose: 400.0 mg/kg/injection, schedule: Q01DX009 (ip), vehicle: Klucel (hydroxypropylcellulose) (HPC)",105 % of control
same,T/C,[3],95 % of control
COc1ccc2c(c1)CC[C@@H]1[C@@H]2CC[C@@]2(C)[C@H]1CC[C@@]2(O)C(F)=C(F)F,T/C,"dose: 38.0 mg/kg/injection, schedule: Q01DX015 (sc), vehicle: steriod suspending solution",96 % of control
same,T/C,"dose: 50.0 mg/kg/injection, schedule: Q01DX009 (ip), vehicle: Klucel (hydroxypropylcellulose) (HPC)",116 % of control
same,T/C,"dose: 75.0 mg/kg/injection, schedule: Q01DX015 (sc), vehicle: steriod suspending solution",88 % of control
same,T/C,"dose: 100.0 mg/kg/injection, schedule: Q01DX001 (sc), vehicle: steriod suspending solution",92 % of control
same,T/C,[4],107 % of control
same,T/C,"dose: 150.0 mg/kg/injection, schedule: Q01DX015 (sc), vehicle: steriod suspending solution",94 % of control
same,T/C,"dose: 200.0 mg/kg/injection, schedule: Q01DX001 (sc), vehicle: steriod suspending solution",100 % of control
same,T/C,[5],100 % of control
same,T/C,"dose: 300.0 mg/kg/injection, schedule: Q01DX009 (ip), vehicle: Klucel (hydroxypropylcellulose) (HPC)",104 % of control
same,T/C,"dose: 300.0 mg/kg/injection, schedule: Q01DX015 (sc), vehicle: steriod suspending solution",94 % of control
same,T/C,"dose: 400.0 mg/kg/injection, schedule: Q01DX001 (sc), vehicle: steriod suspending solution",97 % of control
same,T/C,"dose: 600.0 mg/kg/injection, schedule: Q01DX015 (sc), vehicle: steriod suspending solution",94 % of control
CSCCC(NC(=O)CNC(=O)OCc1ccccc1)C(=O)O (stereo not given),T/C,[6],106 % of control
same,T/C,[7],95 % of control
same,T/C,[8],107 % of control
O=C(O)C1CC=CCC1C(=O)O (stereo not given),T/C,"dose: 100.0 mg/kg/injection, schedule: Q01DX005 (ip), vehicle: saline",95 % of control
same,T/C,"dose: 100.0 mg/kg/injection, schedule: Q01DX009 (ip), vehicle: saline",108 % of control
same,T/C,[6],97 % of control
same,T/C,"dose: 100.0 mg/kg/injection, schedule: Q04DX003 (ip), vehicle: saline",94 % of control
same,T/C,"dose: 200.0 mg/kg/injection, schedule: Q01DX005 (ip), vehicle: saline",98 % of control
same,T/C,"dose: 200.0 mg/kg/injection, schedule: Q01DX009 (ip), vehicle: saline",118 % of control
same,T/C,[7],95 % of control
same,T/C,"dose: 200.0 mg/kg/injection, schedule: Q04DX003 (ip), vehicle: saline",91 % of control
same,T/C,"dose: 400.0 mg/kg/injection, schedule: Q01DX005 (ip), vehicle: saline",92 % of control
same,T/C,[8],91 % of control
same,T/C,"dose: 400.0 mg/kg/injection, schedule: Q04DX003 (ip), vehicle: saline",99 % of control
